Experimental data taken from paper PMC7669869, “AdipoR1/AdipoR2 dual agonist recovers nonalcoholic steatohepatitis and related fibrosis via endoplasmic reticulum-mitochondria axis” (Nature Communications, 2020).
Values joined by “and” are separate entries in the source; they are usually repeats but may differ in a detail not shown here. Identical values can stand only once. “Also recorded” adds a separate entry of the source. Non-standard residues stand in square brackets, D forms with d. Residues, ends and D or L forms follow the SMILES beside them. Nva = CCC[C@H](N)C(=O)O

Key:
HepG2 cells = assay: PA induced lipid accumulation, Oil Red O staining; format: cell-based, human; conditions: HepG2, 0.25 mM PA + 200 μM peptide, 24 h; in words
Protocol: (§1) Hepatoma carcinoma cell line HepG2 and human hepatic activated stellate cell line LX2 used in this study were purchased from Type Culture Collection of the Chinese Academy of Sciences (Shanghai, China). Cells were cultured in Dulbecco’s modified Eagle’s medium (DMEM) with 10% fetal bovine serum (FBS), supplemented with 1% penicillin–streptomycin (ThermoFisher Scientific, USA) at 37 °C in a humidified atmosphere of 5% CO2. In PA (Sigma, USA) induced lipid accumulation cell model, HepG2 cells were seeded into a 6-well plate at 5E5 cells per well. 0.25 mM PA and/or 200 μM candidate peptides were co-incubated with cells for 24 h. Then Oil Red O staining was performed to evaluate the accumulation of lipid droplets. BSA (Sigma, USA) was used in this experiment as the negative control. For LX2 cells, 2E5 cells were seeded, then the adherent cells were exposed to 200 μM candidate peptides for another 48 h. Next, the cell protein was obtained and western blotting was performed. Candidate peptides were diluted in DMEM in a stock concentration of 1 M.

[1] = system: αSMA expression in LX2 cells; assay: Western blotting for αSMA expression in LX2; format: cell-based, human; conditions: LX2, 200 μM peptide, 48 h; western blot; in words
Protocol: as §1, with “For LX2 cells, 2E5 cells were seeded, then the adherent cells were exposed to 200 μM candidate peptides for another 48 h. Next, the cell protein was obtained and western blotting was performed. Candidate peptides were diluted in DMEM in a stock concentration of 1 M.” left out
Total protein was isolated from cells or liver samples using RIPA lysis buffer (50.0 mM Tris-HCl (pH = 8.0), 150.0 mM NaCl, 0.02% NaN3, 0.1% SDS, 1% NP-40, 0.5% deoxysodium cholate, 1 mM EDTA, […]). The protein concentration was quantified with BCA kit (Pierce, ThermoFisher Scientific, USA). […] After incubation with the secondary antibody, proteins were detected by enhanced chemiluminescence (Glarity^TM Western ECL Substrate, Bio-Rad, USA) and the signals were recorded and quantified with Tanon-Image Software (Shanghai, China). […]

HFD induced NASH mice = assay: HFD mice: insulin tolerance test (ITT); format: in vivo, mouse; conditions: JT003 500 μg kg−1, in words
Protocol: For insulin tolerance test, one week after OGTT assay, 6 h fasted mice were treated with JT003, and the baseline blood glucose level was measured. An hour later, 0.25 U kg^−1 insulin (Novolin R, Denmark) were intraperitoneal injection to mice, blood glucose level was measured at 15, 30, 45, 60 min

PA induced HepG2 cells = assay: Mitochondrial content assay (MitoTracker), PA induced HepG2; format: cell-based, human; conditions: HepG2, PA + 200 μM JT003; in words
Protocol: 60–70% confluent LX2 cells and PA induced HepG2 cells were washed with PBS twice and incubated with 100 nM MitoTracker Green FM (YeSan, China) at 37 °C for 30 min For fluorescence intensity assay, cells were harvested by using trypsin/EDTA (ThermoFisher Scientific, USA) and resuspended in PBS. The excitation and emission wavelengths were 490 and 516 nm, respectively, and the intensity values corrected for total protein level (mg ml^−1). For mitochondrial visualized assay, after incubated with MitoTracker Green FM, the adherent cells were washed with PBS and a single in-focus optical section was acquired with confocal microscopy (Olympus, Japan). The nucleus was stained with Hochest33342 (ThermoFisher Scientific, USA). For every section n = 50 cells, images were analyzed and quantified by ImageJ.

[2] = system: liver gene expression of CCl4 induced liver fibrosis mice; assay: CCl4 mice: liver RNAseq gene expression analysis; format: in vivo, mouse; conditions: CCl4 + JT003 group
Protocol: Male mice liver fibrosis was induced by intraperitoneal injection of 20% CCl4 (Sigma, USA) diluted in corn oil (Aladdin, China) every 3 days for 6 weeks (n = 6; 5 ml kg^−1 body weight). Mice injected with equivalent volume of corn oil serves as control group (n = 6). Liver fibrosis mice treated with JT003 for 3 weeks were used to evaluated the pharmacological effects (n = 6; 500 μg kg^−1; daily intraperitoneal injection).
The positive area of all stained liver slices was quantified by ImageJ (https://imagej.nih.gov/ij/). All data in this study were shown as the mean ± SEM (Standard Error). Student’s two-tailed t test was used to compare the mean of two groups of samples. All statistical analyses were performed with GraphPad Prism software (https://www.graphpad.com/). Significance was considered when p < 0.05. In RNAseq gene expression analysis, false discovery rate <0.01, q value <0.001. The confidence level was 95%.

[3] = system: CCl4 induced liver fibrosis mice; assay: CCl4 mice: serum ALT, AST and liver HYP; format: in vivo, mouse; conditions: Figure 5b; CCl4 + JT003 group; single animals, n = 5

In the case of `CCC[C@H](NC(=O)[C@@H]1CCCN1)C(=O)N[C@@H](CC(C)C)C(=O)N[C@@H](Cc1ccc(O)cc1)C(=O)N[C@@H](Cc1ccc(O)cc1)C(=O)N[C@@H](Cc1ccccc1)C(=O)N[C@@H](C)C(N)=O` [JT003] (H-P[Nva]LYYFA-NH2), the “lipid droplets accumulation caused by PA (Oil Red O)” value (HepG2 cells) is reported as “exhibited the best potential”, the “expression level of αSMA in LX2 cells” value [1] is reported as “significantly decrease; also recorded: showed the best performance in inhibiting fibroblast formation” and the “HFD-induced insulin resistance, insulin tolerance test” value (HFD induced NASH mice) is reported as “obviously ameliorated”. For the same molecule, the “mitochondrial content / biogenesis in PA induced HepG2” value (PA induced HepG2 cells) was “mitochondrial biogenesis was improved”, the “Akr1c18 liver RNAseq expression” value ([2]; Figure 6c) was 0.1038 and the “Bco1 liver RNAseq expression” value ([2]; Figure 6c) was 0.5514. The “Brca1 liver RNAseq expression” value ([2]; Figure 6c) was -0.5686, the “C3ar1 liver RNAseq expression” value ([2]; Figure 6c) was -0.04576 and the “C5ar1 liver RNAseq expression” value ([2]; Figure 6c) was -0.1308. For the same molecule, the “Ccl9 liver RNAseq expression” value ([2]; Figure 6c) was 1.215, the “Cxcl1 liver RNAseq expression” value ([2]; Figure 6c) was 1.2887 and the “Fbn1 liver RNAseq expression” value ([2]; Figure 6c) was -0.3979. For the same molecule, the “Fbn2 liver RNAseq expression” value ([2]; Figure 6c) was -1.301, the “Nupr1 liver RNAseq expression” value ([2]; Figure 6c) was 0.5866 and the “Ptges liver RNAseq expression” value ([2]; Figure 6c) was -0.4949. The “Rdh11 liver RNAseq expression” value ([2]; Figure 6c) was 0.8089, the “Robo1 liver RNAseq expression” value ([2]; Figure 6c) was -0.03152 and the “Xcr1 liver RNAseq expression” value ([2]; Figure 6c) was -0.1135. The “Alg8 liver RNAseq expression” value ([2]; Figure 7c) was 0.5944, the “Anxa5 liver RNAseq expression” value ([2]; Figure 7c) was 1.645 and the “Atp2b2 liver RNAseq expression” value ([2]; Figure 7c) was -0.4202. The “Atp7b liver RNAseq expression” value ([2]; Figure 7c) was 0.2148, the “Ces3b liver RNAseq expression” value ([2]; Figure 7c) was 2.066 and the “Creb3l2 liver RNAseq expression” value ([2]; Figure 7c) was 0.1072. The “Dhrs9 liver RNAseq expression” value ([2]; Figure 7c) was -0.6021, the “Elovl3 liver RNAseq expression” value ([2]; Figure 7c) was 0.433 and the “Fitm1 liver RNAseq expression” value ([2]; Figure 7c) was -0.3372. For the same molecule, the “Fmo2 liver RNAseq expression” value ([2]; Figure 7c) was 0.8831, the “Fndc5 liver RNAseq expression” value ([2]; Figure 7c) was -0.7212 and the “Grik5 liver RNAseq expression” value ([2]; Figure 7c) was 0.5888. For the same molecule, the “Mia2 liver RNAseq expression” value ([2]; Figure 7c) was 0.7875, the “Myo5a liver RNAseq expression” value ([2]; Figure 7c) was -0.7959 and the “Nat8f5 liver RNAseq expression” value ([2]; Figure 7c) was 0.6064. The “Nsdhl liver RNAseq expression” value ([2]; Figure 7c) was 0.8949, the “Nucb2 liver RNAseq expression” value ([2]; Figure 7c) was 0.4814 and the “Pdilt liver RNAseq expression” value ([2]; Figure 7c) was 0.5899. The “Pkmyt1 liver RNAseq expression” value ([2]; Figure 7c) was 0.09691, the “Prom1 liver RNAseq expression” value ([2]; Figure 7c) was -0.03152 and the “Serpina1e liver RNAseq expression” value ([2]; Figure 7c) was 3.324. The “Slc37a2 liver RNAseq expression” value ([2]; Figure 7c) was -0.4559, the “Soat1 liver RNAseq expression” value ([2]; Figure 7c) was -0.1079 and the “Sorl1 liver RNAseq expression” value ([2]; Figure 7c) was -0.8539. The “Srd5a2 liver RNAseq expression” value ([2]; Figure 7c) was -0.09691, the “Trim59 liver RNAseq expression” value ([2]; Figure 7c) was -0.4949 and the “Zdhhc2 liver RNAseq expression” value ([2]; Figure 7c) was -0.3468. The “Adamts5 liver RNAseq expression” value ([2]; Figure 5d) was -0.4318, the “Adamtsl1 liver RNAseq expression” value ([2]; Figure 5d) was -0.9208 and the “Anxa2 liver RNAseq expression” value ([2]; Figure 5d) was 1.107. For the same molecule, the “Ckap4 liver RNAseq expression” value ([2]; Figure 5d) was -0.05061, the “Col1a1 liver RNAseq expression” value ([2]; Figure 5d) was 0.8745 and the “Col1a2 liver RNAseq expression” value ([2]; Figure 5d) was 0.934. For the same molecule, the “Col3a1 liver RNAseq expression” value ([2]; Figure 5d) was 1.043, the “Col6a3 liver RNAseq expression” value ([2]; Figure 5d) was 0.1367 and the “Lgals3 liver RNAseq expression” value ([2]; Figure 5d) was 0.941. For the same molecule, the “Lpl liver RNAseq expression” value ([2]; Figure 5d) was 1.015, the “Ltbp2 liver RNAseq expression” value ([2]; Figure 5d) was -0.2757 and the “Mmp12 liver RNAseq expression” value ([2]; Figure 5d) was -0.1805. For the same molecule, the “Nid1 liver RNAseq expression” value ([2]; Figure 5d) was 0.5877, the “Nid2 liver RNAseq expression” value ([2]; Figure 5d) was 0.03342 and the “Npnt liver RNAseq expression” value ([2]; Figure 5d) was -1.222. For the same molecule, the “Serpine2 liver RNAseq expression” value ([2]; Figure 5d) was 0.143, the “Slpi liver RNAseq expression” value ([2]; Figure 5d) was 0.6998 and the “Tubb4b liver RNAseq expression” value ([2]; Figure 5d) was 1.687. For the same molecule, the “alt Enzymatic Activity” value [3] was 182.294 U/L and 119.931 U/L and 31.0646 U/L and 95.3544 U/L and 50.0405 U/L.
